US20230066268A1, “INDAZOLE DERIVATIVES AND METHODS OF USE THEREOF FOR THE TREATMENT OF HERPES VIRUSES” (Merck Sharp & Dohme LLC, priority 2019, published 2023)
Read-outs that look alike come from different tables or passages of the source.

Columns and labels:
[1] = target: T1, Human cytomegalovirus DNA polymerase (Human cytomegalovirus, UniProt P08546); experiment: CMV polymerase assay (AlphaLISA); type: biochemical; conditions: polymerase assay of Example 27, HCMV polymerase 0.2 nM
T1 construct: made in house; host or cells: SF21 insect cells (baculovirus vector)
Description: (§1) CMV and VZV Polymerase Assays
(§2) Human cytomegalovirus and varicella zoster virus DNA polymerases were expressed via baculovirus vector in SF21 cells and purified. Heterodimeric nucleic acid substrate used in the herpesvirus polymerase reactions were generated by annealing a 59-mer template to a 17-mer digoxigenin-labeled primer. Polymerase (HCMV final concentration of 0.2 nM; VZV final concentration of 0.4 nM) was combined with an inhibitor compound or DMSO in assay buffer (10 mM HEPES, pH 7.5, 25 mM KCl, 25 mM NaCl, 5 mM MgCl2, 5% glycerol, 0.67 mg/mL bovine serum albumin, and 1 mM tris(2-carboxyethyl)phosphine)), and this mixture was pre-incubated for 30 minutes at room temperature in 384-well microtiter plates. The polymerization reaction was initiated by the addition of template/primer substrate (final concentration: 1.6 nM) and dNTPs (final concentration: 24 nM dCTP, 24 nMdGTP, 16 nM dATP, 16 nM dTTP, and 0.8 nM biotin-dUTP). After a 60 minute incubation period at 37° C., the reactions were terminated using quench buffer (25 mM HEPES pH 7.5, 100 mM NaCl, 0.25% Tween-20, 12 mM EDTA, and 1 mg/mL bovine serum albumin). Incorporation of biotinylated UTP was detected with 2.5-5 μg/mL anti-DIG AlphaLISA acceptor beads and 5-10 μg/mL streptavidin AlphaLISA donor beads (PerkinElmer). Compound effects were normalized to the window defined by the controls (DMSO only and pre-quenched wells) and were fit using a 4-parameter algorithm to report an IC50.

[2] = target: T2, varicella zoster virus DNA polymerase (Varicella-zoster virus, UniProt P09252); experiment: VZV polymerase assay (AlphaLISA); type: biochemical; conditions: polymerase assay of Example 27, VZV polymerase 0.4 nM
T2 construct: made in house; host or cells: SF21 insect cells (baculovirus vector)
Description: as §1, §2

[3] = system: HCMV Strain AD169 in MRC-5 cells; experiment: CMV cell assay; type: cell-based
Description: (§3) MRCS and Vero cells were obtained from ATCC and were maintained at 37° C./5% CO2/90% relative humidity in Minimal Essential Medium with 10% fetal bovine serum, […], 100 units/mL penicillin and 100 ug/mL streptomycin. Assay plates were prepared by dispensing compounds dissolved in DMSO into wells of 384 well collagen-coated plates using an ECHO acoustic dispenser. Each test compound was tested in a 10-point, serial 3-fold dilution. Controls included uninfected cells and infected cells treated only with DMSO. Assays were initiated by mixing selected cells, in suspension, with virus, and dispensing 50 μl/well infected cells to pre-plated compounds. Plates were incubated at 37° C./5% CO2/90% relative humidity for ˜72 hours to permit genomic replication, and infected cells were lysed by the addition of an equal volume of lysis buffer (10 mM Tris-HCl, pH8, 50 mM KCl, 2 mM MgCl2, 0.45% NP-40, 0.45% Tween-20, and 100 μg/mL proteinase K). An aliquot of the lysate was then transferred to a 384-well PCR plate and incubated at 56° C. for 1 hour, and then at 95° C. for 10 minutes. Levels of a viral gene were measured in 10 ul qPCR assays using TaqMan® Gene Expression Master Mix (Applied Biosystems) and an 7900HT Fast Real-Time PCR System with 384-Well Block Module. 7-point, serial 10-fold dilutions of a plasmid standard were run on each plate to generate a standard curve, and genome copies numbers were calculated by plotting experimental Ct onto linear regression of the standard curve. Compound effects on viral genome copy number were normalized to the window defined by the controls. Calculated % effects were fit using a 4-parameter algorithm, and EC50 was reported.
(§4) HCMV: Strain AD169 was assayed in MRC-5 cells and was used at 0.05-0.1 pfu/cell. The assays were performed in either growth media or in the same media with 50% fetal bovine serum. Primer-probe set was Thermo Fisher Assay ID=AIFATFK. HSV-1: Strain F was assayed in Vero or MRCS cells and was used at 0.0005-0.004 pfu/cell in growth medium. Primer-probe set was Thermo Fisher Assay ID=AIBJZIB. HSV-2: Strain G was assayed in Vero or MRCS cells and was used at 0.004-0.4 pfu/cell in growth medium. Primer-probe set was Thermo Fisher Assay ID=AICSXOJ.

[4] = system: HSV-1 Strain F in Vero or MRCS cells; experiment: Viral qPCR assay, HSV-1; type: cell-based; conditions: read-out: HSV1 Cell (EC50), values marked *
Description: as §3, §4

[5] = system: HSV-2 Strain G in Vero or MRCS cells; experiment: Viral qPCR assay, HSV-2; type: cell-based; conditions: read-out: HSV2 Cell (EC50), values marked *
Description: as §3, §4

[6] = Human betaherpesvirus 5, AD169, MRC5, footnote b: assay described in Example 25, read-out: CMV Cell^b (EC50)
[7] = Human alphaherpesvirus 1, starred values: viral qPCR assay of Example 26, ~72 hours, Vero or MRCS cells
[8] = Human alphaherpesvirus 2, starred values: viral qPCR assay of Example 26, ~72 hours, Vero or MRCS cells

T2 sequence (P09252 whole entry): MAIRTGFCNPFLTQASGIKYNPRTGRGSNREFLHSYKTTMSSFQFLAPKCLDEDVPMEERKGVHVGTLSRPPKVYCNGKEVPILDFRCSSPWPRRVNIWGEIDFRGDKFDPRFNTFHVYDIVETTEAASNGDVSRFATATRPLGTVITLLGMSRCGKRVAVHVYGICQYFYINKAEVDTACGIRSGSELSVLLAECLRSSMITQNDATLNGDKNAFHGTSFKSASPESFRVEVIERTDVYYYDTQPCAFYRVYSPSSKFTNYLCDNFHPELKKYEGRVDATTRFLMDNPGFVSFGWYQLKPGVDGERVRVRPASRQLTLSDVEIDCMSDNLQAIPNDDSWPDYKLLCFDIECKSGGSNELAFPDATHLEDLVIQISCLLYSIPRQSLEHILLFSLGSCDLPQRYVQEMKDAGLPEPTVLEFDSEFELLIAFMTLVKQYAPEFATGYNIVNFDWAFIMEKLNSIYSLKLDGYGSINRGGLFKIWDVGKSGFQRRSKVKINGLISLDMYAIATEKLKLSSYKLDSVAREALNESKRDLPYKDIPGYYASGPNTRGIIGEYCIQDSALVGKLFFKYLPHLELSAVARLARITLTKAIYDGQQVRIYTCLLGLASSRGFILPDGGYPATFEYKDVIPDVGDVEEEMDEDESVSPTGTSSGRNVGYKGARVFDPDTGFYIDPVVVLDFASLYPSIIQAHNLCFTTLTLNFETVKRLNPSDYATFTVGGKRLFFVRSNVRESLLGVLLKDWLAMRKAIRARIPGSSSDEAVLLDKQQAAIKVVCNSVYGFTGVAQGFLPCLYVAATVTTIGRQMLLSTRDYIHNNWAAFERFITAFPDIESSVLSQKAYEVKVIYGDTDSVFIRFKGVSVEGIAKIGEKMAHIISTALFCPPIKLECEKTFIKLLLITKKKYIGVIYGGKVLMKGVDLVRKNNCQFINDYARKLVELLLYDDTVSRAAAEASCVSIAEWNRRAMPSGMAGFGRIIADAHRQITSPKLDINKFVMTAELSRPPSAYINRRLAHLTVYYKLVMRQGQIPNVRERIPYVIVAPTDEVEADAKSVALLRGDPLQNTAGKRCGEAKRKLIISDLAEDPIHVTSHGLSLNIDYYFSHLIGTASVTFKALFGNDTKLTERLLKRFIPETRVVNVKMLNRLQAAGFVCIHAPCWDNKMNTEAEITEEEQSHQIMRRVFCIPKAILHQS
T1 sequence (P08546 whole entry): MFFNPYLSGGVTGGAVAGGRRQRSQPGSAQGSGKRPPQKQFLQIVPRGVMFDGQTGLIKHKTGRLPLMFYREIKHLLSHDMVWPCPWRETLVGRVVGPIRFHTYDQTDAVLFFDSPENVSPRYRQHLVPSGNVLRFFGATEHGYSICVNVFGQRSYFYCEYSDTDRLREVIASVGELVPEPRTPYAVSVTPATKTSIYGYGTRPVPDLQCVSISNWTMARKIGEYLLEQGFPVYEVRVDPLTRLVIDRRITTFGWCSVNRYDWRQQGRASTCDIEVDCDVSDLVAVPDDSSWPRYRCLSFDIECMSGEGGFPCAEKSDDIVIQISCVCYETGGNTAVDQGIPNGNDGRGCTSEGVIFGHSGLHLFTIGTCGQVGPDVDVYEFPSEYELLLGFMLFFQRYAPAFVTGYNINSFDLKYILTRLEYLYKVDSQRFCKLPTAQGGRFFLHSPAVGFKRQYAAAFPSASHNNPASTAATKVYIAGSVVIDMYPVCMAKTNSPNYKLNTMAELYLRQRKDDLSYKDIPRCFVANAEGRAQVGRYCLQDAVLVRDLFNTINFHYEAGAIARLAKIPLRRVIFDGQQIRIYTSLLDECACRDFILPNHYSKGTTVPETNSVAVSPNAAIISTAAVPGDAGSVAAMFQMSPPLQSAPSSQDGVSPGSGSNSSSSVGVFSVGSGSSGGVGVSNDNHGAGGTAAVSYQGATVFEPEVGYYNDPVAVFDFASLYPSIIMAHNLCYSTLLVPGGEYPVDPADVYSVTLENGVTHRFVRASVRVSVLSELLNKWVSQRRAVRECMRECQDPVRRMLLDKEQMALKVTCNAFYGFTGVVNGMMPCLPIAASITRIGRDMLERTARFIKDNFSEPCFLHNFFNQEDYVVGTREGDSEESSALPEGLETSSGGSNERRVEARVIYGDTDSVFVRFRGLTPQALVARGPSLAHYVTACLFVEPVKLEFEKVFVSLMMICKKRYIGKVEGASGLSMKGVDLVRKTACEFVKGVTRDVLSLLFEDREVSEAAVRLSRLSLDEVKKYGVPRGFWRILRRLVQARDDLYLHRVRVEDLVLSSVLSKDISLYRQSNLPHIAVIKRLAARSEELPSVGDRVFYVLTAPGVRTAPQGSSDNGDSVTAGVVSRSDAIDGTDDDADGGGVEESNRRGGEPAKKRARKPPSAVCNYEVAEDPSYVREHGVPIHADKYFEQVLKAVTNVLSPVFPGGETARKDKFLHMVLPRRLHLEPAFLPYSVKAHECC

IC50 ([1]; read-out: CMV^a (IC50)) [nM] | IC50 ([2]; read-out: VZV^a (IC50)) [nM] | SMILES | EC50 [3, 6] [nM] | EC50 [4, 7] [nM] | EC50 [5, 8] [nM] | IC50 ([1]; CMV^a (IC50)) [nM] | IC50 ([2]; VZV^a (IC50)) [nM] | EC50 ([3]; Human betaherpesvirus 5, AD169, MRC5, read-out: CMV Cell^b (EC50), footnote b: assay described in Example 25) [nM] | EC50 ([4]; Human alphaherpesvirus 1, Vero, 72 h) [nM] | EC50 ([5]; Human alphaherpesvirus 2, Vero, 72 h) [nM]
150 | 14 | Cn1nc(C(=O)NCc2ccc(Cl)cc2)c2c3c(ccc21)C(N1CCOCC1)CC3 (centres unmarked) [Compound 17] | 1000 | 310 | 350 |  |  |  |  | 
78 | 35 | Cn1nc(C(=O)NCc2ccc(Cl)cc2)c2cc(C[C@H]3COC(=O)N3)ccc21 [Compound 33] | 160 | 200 | 110 |  |  |  |  | 
 |  | NCCn1nc(C(=O)NCc2ccc(Cl)cc2)c2ccc(NCc3cnns3)c(Cl)c21 [Compound 3] |  |  |  | 9.6 | 2.9 | 71 | 85 | 170
67 | 24 | Cn1nc(C(=O)NCc2ccc(Cl)cc2)c2cc(C[C@H]3CCC(=O)N3)ccc21 [Compound 34] | 330 | 220 | 240 |  |  |  |  | 
